Reference: the supplement of paper PMC6045584
± gives the standard deviation of the averaged measurements.

Legend:
[1] = compound: CN(C)CC[C@H](CSc1ccccc1)Nc1ccc(S(=O)(=O)NC(=O)c2ccc(N3CCN(Cc4ccccc4-c4ccc(Cl)cc4)CC3)cc2)cc1[N+](=O)[O-] [ABT-737]; assay: surviving fraction relative to DMSO-only wells; higher = less growth inhibition; conditions: exposure time: 5 days
Summary of the method: (§1)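 After seeding at 250–500 cells per well in 384-well plates and a 24-hour wait, log-phase tumour cell lines were exposed without interruption for five days to inhibitors at 0.5, 1, 5, 10, 50, 100, 500 and 1000 nM. CellTiter-Glo luminescence was recorded after 10 minutes at room temperature. Viability is reported as surviving fraction, the luminescence normalised to the median of DMSO-only wells.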

[2] = compound: COc1cc2c(cc1O)CC[C@@H]1[C@@H]2CC[C@]2(C)[C@@H](O)CC[C@@H]12 [2-METHOXYESTRADIOL]; assay: as above; conditions: exposure time: 5 days
Summary of the method: as §1

Test System | surviving fraction ([1]; 0.5 nM) | surviving fraction ([1]; 1 nM) | surviving fraction ([1]; 5 nM) | surviving fraction ([1]; 10 nM) | surviving fraction ([1]; 50 nM) | surviving fraction ([1]; 100 nM) | surviving fraction ([1]; 500 nM) | surviving fraction ([1]; 1000 nM) | surviving fraction ([2]; 0.5 nM) | surviving fraction ([2]; 1 nM) | surviving fraction ([2]; 5 nM) | surviving fraction ([2]; 10 nM) | surviving fraction ([2]; 50 nM) | surviving fraction ([2]; 100 nM) | surviving fraction ([2]; 500 nM) | surviving fraction ([2]; 1000 nM)
MDAMB436 BREAST | 0.985 ± 0.085 | 1.09 ± 0.041 | 1.05 ± 0.14 | 0.972 ± 0.16 | 0.998 ± 0.1 | 1.14 ± 0.31 | 0.961 ± 0.17 | 0.962 ± 0.083 | 0.944 ± 0.012 | 0.951 ± 0.19 | 1 ± 0.016 | 0.953 ± 0.065 | 0.956 ± 0.065 | 0.971 ± 0.045 | 0.779 ± 0.12 | 0.62 ± 0.079
MDAMB453 BREAST | 1.07 ± 0.046 | 1.08 ± 0.083 | 1.1 ± 0.047 | 1.13 ± 0.067 | 1.09 ± 0.036 | 1.1 ± 0.055 | 1.07 ± 0.057 | 1 ± 0.047 | 1.04 ± 0.059 | 0.995 ± 0.032 | 1.02 ± 0.079 | 1.02 ± 0.037 | 1.08 ± 0.037 | 1.05 ± 0.048 | 0.511 ± 0.072 | 0.257 ± 0.014
MDAMB468 BREAST | 1.14 ± 0.06 | 1.08 ± 0.018 | 1.08 ± 0.037 | 1.11 ± 0.066 | 1.1 ± 0.045 | 1.11 ± 0.11 | 1.08 ± 0.03 | 1.09 ± 0.12 | 0.994 ± 0.12 | 1.08 ± 0.056 | 1.03 ± 0.053 | 1.13 ± 0.072 | 1.09 ± 0.055 | 1.15 ± 0.065 | 1.01 ± 0.081 | 0.99 ± 0.064
MFM223 BREAST | 1.39 ± 0.39 | 1.4 ± 0.37 | 1.36 ± 0.35 | 1.52 ± 0.56 | 1.08 ± 0.091 | 1.05 ± 0.14 | 1.05 ± 0.082 | 1.2 ± 0.054 | 1.11 ± 0.1 | 1.11 ± 0.062 | 1.1 ± 0.093 | 1.17 ± 0.35 | 1.06 ± 0.034 | 0.973 ± 0.026 | 0.384 ± 0.057 | 0.16 ± 0.032
MG63 BONE | 1.08 ± 0.034 | 1.07 ± 0.024 | 1.12 ± 0.047 | 1.1 ± 0.05 | 1.11 ± 0.033 | 1.09 ± 0.058 | 1.07 ± 0.016 | 1.06 ± 0.04 | 0.991 ± 0.015 | 1.008 ± 0.0075 | 1.02 ± 0.014 | 1.01 ± 0.018 | 1.04 ± 0.029 | 1.05 ± 0.021 | 0.971 ± 0.034 | 0.861 ± 0.03
MHM BONE | 1.03 ± 0.053 | 1.08 ± 0.062 | 1.07 ± 0.045 | 1.1 ± 0.046 | 1.07 ± 0.034 | 1.15 ± 0.013 | 1.09 ± 0.015 | 1.12 ± 0.015 | 1.02 ± 0.035 | 1.01 ± 0.033 | 1.04 ± 0.049 | 1.03 ± 0.05 | 1.04 ± 0.029 | 1.03 ± 0.045 | 0.975 ± 0.015 | 0.673 ± 0.048
NCIH441 LUNG | 1.19 ± 0.027 | 1.22 ± 0.05 | 1.115 ± 0.0076 | 1.11 ± 0.052 | 1.11 ± 0.045 | 1.12 ± 0.077 | 1.11 ± 0.086 | 1.06 ± 0.15 | 1.1 ± 0.058 | 1.03 ± 0.073 | 1.08 ± 0.036 | 1.03 ± 0.065 | 1.03 ± 0.097 | 1.03 ± 0.084 | 0.922 ± 0.09 | 0.575 ± 0.093
NOS1 BONE | 1.07 ± 0.093 | 1.05 ± 0.085 | 1.32 ± 0.035 | 1.14 ± 0.048 | 1.19 ± 0.092 | 1.14 ± 0.048 | 1.09 ± 0.081 | 1.11 ± 0.17 | 1.19 ± 0.077 | 1.15 ± 0.063 | 1.27 ± 0.18 | 1.28 ± 0.14 | 1.13 ± 0.23 | 1.22 ± 0.097 | 0.981 ± 0.055 | 0.438 ± 0.036
NY BONE | 0.986 ± 0.029 | 1.02 ± 0.032 | 1.09 ± 0.064 | 1.09 ± 0.03 | 1.07 ± 0.012 | 1.071 ± 0.0072 | 0.99 ± 0.017 | 0.957 ± 0.035 | 0.95 ± 0.026 | 0.952 ± 0.014 | 0.983 ± 0.021 | 0.994 ± 0.017 | 1.03 ± 0.018 | 1 ± 0.031 | 0.106 ± 0.0015 | 0.057 ± 0.0036
OS25HAL BONE | 0.984 ± 0.048 | 1.07 ± 0.035 | 0.975 ± 0.028 | 1.02 ± 0.025 | 1.06 ± 0.082 | 1.12 ± 0.042 | 0.983 ± 0.045 | 0.882 ± 0.076 | 0.828 ± 0.2 | 0.94 ± 0.029 | 0.961 ± 0.021 | 0.945 ± 0.042 | 1 ± 0.086 | 1.05 ± 0.072 | 0.501 ± 0.092 | 0.169 ± 0.014
OSHN BONE | 1.09 ± 0.026 | 1.1 ± 0.018 | 1.08 ± 0.014 | 1.09 ± 0.014 | 1.11 ± 0.028 | 1.11 ± 0.022 | 1.02 ± 0.049 | 0.998 ± 0.035 | 1.03 ± 0.012 | 1.046 ± 0.0025 | 1.05 ± 0.026 | 1.031 ± 0.0067 | 1.054 ± 0.0092 | 1.068 ± 0.007 | 1.04 ± 0.033 | 0.044 ± 0.0036
PCI30 HEADNECK | 1.12 ± 0.029 | 1.09 ± 0.061 | 1.09 ± 0.096 | 1.07 ± 0.026 | 1.08 ± 0.023 | 1.13 ± 0.11 | 0.919 ± 0.091 | 0.909 ± 0.022 | 0.783 ± 0.016 | 0.857 ± 0.019 | 1.03 ± 0.039 | 0.985 ± 0.057 | 1.01 ± 0.078 | 0.982 ± 0.051 | 0.421 ± 0.048 | 0.216 ± 0.046
RDES SOFT TISSUE | 1.26 ± 0.093 | 1.17 ± 0.053 | 1.13 ± 0.074 | 0.98 ± 0.036 | 0.765 ± 0.083 | 0.576 ± 0.034 | 0.405 ± 0.037 | 0.385 ± 0.058 | 1.26 ± 0.16 | 1.26 ± 0.086 | 1.15 ± 0.046 | 1.29 ± 0.11 | 1.29 ± 0.15 | 1.17 ± 0.14 | 1.13 ± 0.12 | 0.178 ± 0.034
S68 BREAST | 1.25 ± 0.083 | 1.04 ± 0.045 | 1.04 ± 0.28 | 1.15 ± 0.047 | 1.26 ± 0.41 | 1.14 ± 0.27 | 0.848 ± 0.25 | 0.822 ± 0.14 | 0.845 ± 0.17 | 0.812 ± 0.15 | 0.879 ± 0.13 | 1.16 ± 0.3 | 1.24 ± 0.23 | 0.985 ± 0.067 | 0.617 ± 0.036 | 0.325 ± 0.017
SAOS2 BONE | 1.18 ± 0.037 | 1.18 ± 0.056 | 1.21 ± 0.098 | 1.19 ± 0.082 | 1.27 ± 0.061 | 1.13 ± 0.059 | 1.14 ± 0.12 | 1.08 ± 0.018 | 1.09 ± 0.099 | 1.16 ± 0.065 | 1.17 ± 0.019 | 1.17 ± 0.05 | 1.28 ± 0.21 | 1.22 ± 0.051 | 0.769 ± 0.076 | 0.272 ± 0.013
SCC003 HEADNECK | 1.11 ± 0.067 | 1.17 ± 0.03 | 1.16 ± 0.032 | 1.09 ± 0.021 | 1.15 ± 0.096 | 1.16 ± 0.1 | 1.19 ± 0.049 | 1.09 ± 0.069 | 0.936 ± 0.064 | 0.88 ± 0.13 | 1.03 ± 0.045 | 0.976 ± 0.074 | 1.04 ± 0.043 | 1.11 ± 0.017 | 0.867 ± 0.15 | 0.734 ± 0.087
SCC36 HEADNECK | 1.08 ± 0.18 | 1.03 ± 0.054 | 1.15 ± 0.028 | 1.13 ± 0.056 | 1.14 ± 0.14 | 1.12 ± 0.061 | 0.897 ± 0.035 | 0.924 ± 0.11 | 1.09 ± 0.053 | 1.03 ± 0.052 | 1.09 ± 0.083 | 1.04 ± 0.091 | 1.22 ± 0.065 | 1.14 ± 0.016 | 0.94 ± 0.096 | 0.251 ± 0.029
SCC47 HEADNECK | 1.14 ± 0.033 | 1.13 ± 0.13 | 1.23 ± 0.09 | 1.25 ± 0.05 | 1.24 ± 0.087 | 1.2 ± 0.055 | 1.1 ± 0.053 | 1.14 ± 0.12 | 0.816 ± 0.11 | 0.912 ± 0.15 | 0.977 ± 0.055 | 1.1 ± 0.16 | 1.09 ± 0.11 | 1.12 ± 0.15 | 0.838 ± 0.046 | 0.872 ± 0.12
SCC90 HEADNECK | 1.05 ± 0.077 | 1.05 ± 0.11 | 1.14 ± 0.12 | 1.14 ± 0.073 | 1.09 ± 0.046 | 1.11 ± 0.097 | 0.949 ± 0.05 | 0.853 ± 0.087 | 0.927 ± 0.058 | 0.721 ± 0.076 | 1.02 ± 0.1 | 0.923 ± 0.12 | 1 ± 0.1 | 0.875 ± 0.099 | 0.185 ± 0.017 | 0.102 ± 0.013
